One series deals with Fish. As to the kind of experiment: Fish aqua tox (OECD 203). It is filed as in vivo.
Another series has as its system Daphnia magna. Particulars: in vivo.

“dialkyldimethyl ammonium chloride [Adogen 442]”: in the series on Fish, the “Fish; aqua tox (203); 96 h; LC50” value came out at 10.1 µg/mL. Moreover, in the series with Daphnia magna, the “Aquatoxicity, invertebrates, Daphnia magna; (202) 48 h; EC50” value is 0.19 µg/mL.

The record behind these values is patent US20190040584A1, “Use of DIPA-Esterquat Debonder For Tissue And Fluff Pulp Manufacturing” (Evonik Degussa GmbH, priority 2016, published 2019).
